Results: patent US20100061994A1, “MEDICAL USES OF 39-DESMETHOXYRAPAMYCIN AND ANALOGUES THEREOF” (priority 2005, published 2010)
pIC50: −log10 of the molar value. Where two headings read alike, the source gives them in different places.

What was measured:
[1] = Human Liver Microsomal (HLM) stability assay; type: in vitro ADME
Method: Liver homogenates provide a measure of a compounds inherent vulnerability to Phase I (oxidative) enzymes, including CYP450s (e.g. CYP2C8, CYP2D6, CYP1A, CYP3A4, CYP2E1), esterases, amidases and flavin monooxygenases (FMOs).
The half life (T½) of test compounds was determined, on exposure to Human Liver Microsomes, by monitoring their disappearance over time by LC-MS. Compounds at 0.001 mM were incubated at for 40 min at 37° C., 0.1 M Tris-HCl, pH 7.4 with human microsomal sub-cellular fraction of liver at 0.25 mg/mL protein and saturating levels of NADPH as co-factor. At timed intervals, acetonitrile was added to test samples to precipitate protein and stop metabolism. Samples were centrifuged and analysed for parent compound using analytical Method A (see Materials & Methods).

[2] = system: MDA231; experiment: Monolayer proliferation assay Protocol 1 (propidium iodide); type: cell-based, human; settings: 4 days, mean of duplicate experiments
Method: (§1) In vitro evaluation of compounds for anticancer activity in a panel of 12 human tumour cell lines in a monolayer proliferation assay were carried out at the Oncotest Testing Facility, Institute for Experimental Oncology, Oncotest GmbH, Freiburg.
(§2) A modified propidium iodide assay was used to assess the effects of the test compound(s) on the growth of twelve human tumor cell lines (Dengler et al, 1995).
(§3) Briefly, cells were harvested from exponential phase cultures by trypsinization, counted and plated in 96 well flat-bottomed microtitre plates at a cell density dependent on the cell line (5-10.000 viable cells/well). […] Each concentration was plated in triplicate. 39-Desmethoxyrapamycin was applied in two concentrations (0.001 mM and 0.01 mM).
(§4) Growth inhibition was expressed as treated/control×100 (% TIC). For active compounds, IC50 & IC70 values were estimated by plotting compound concentration versus cell viability.
(§5) In vitro evaluation of 39-desmethoxyrapamycin for anticancer activity in a panel of 12 human tumour cell lines in a monolayer proliferation assay was carried out as described as Protocol 1 in the general methods above using a modified propidium iodide assay.

[3] = system: H460; experiment: as above; type: cell-based, human; settings: 4 days, mean of duplicate experiments
Method: as §1, §2, §3, §4, §5

[4] = system: DU145; experiment: as above; type: cell-based, human; settings: 4 days, mean of duplicate experiments
Method: as §1, §2, §3, §4, §5

[5] = system: 1138L; experiment: as above; type: cell-based, human; settings: 4 days, mean of duplicate experiments
Method: as §1, §2, §3, §4, §5

[6] = system: SF268; experiment: as above; type: cell-based, human; settings: 4 days, mean of duplicate experiments
Method: as §1, §2, §3, §4, §5

[7] = system: A498; experiment: Monolayer assay Protocol 2 (SRB), high MDR-expressing cell lines; type: cell-based, human; settings: Renal A498, high MDR-expressing, 48 h
Method: (§6) The human tumor cell lines of the National Cancer Institute (NCI) cancer screening panel were grown in RPMI 1640 medium containing 5% fetal bovine serum and 2 mM L-glutamine (Boyd and Paull, 1995). Cells were inoculated into 96 well microtiter plates in 0.1 mL at plating densities ranging from 5,000 to 40,000 cells/well depending on the doubling time of individual cell lines. After cell inoculation, the microtiter plates were incubated at 37° C., 5% CO2, 95% air and 100% relative humidity for 24 h prior to addition of experimental drugs.
(§7) After 24 h, two plates of each cell line were fixed in situ with trichloroacetic acid (TCA), to represent a measurement of the cell population for each cell line at the time of drug addition (Tz). Experimental drugs were solubilized in dimethyl sulfoxide at 400-fold the desired final maximum test concentration and stored frozen prior to use. At the time of drug addition, an aliquot of frozen concentrate was thawed and diluted to twice the desired final maximum test concentration with complete medium containing 0.05 mg/mL gentamicin. Additional four, 10-fold or ½ log serial dilutions were made to provide a total of five drug concentrations plus control. Aliquots of 0.1 mL of these different drug dilutions were added to the appropriate microtiter wells already containing 0.1 mL of medium, resulting in the required final drug concentrations.
(§8) Following drug addition, the plates were incubated for an additional 48 h at 37° C., 5% CO2, 95% air, and 100% relative humidity. For adherent cells, the assay was terminated by the addition of cold TCA. Cells were fixed in situ by the gentle addition of 0.05 mL of cold 50% (w/v) TCA (final concentration, 10% TCA) and incubated for 60 minutes at 4° C. The supernatant was discarded, and the plates were washed five times with tap water and air dried. Sulforhodamine B (SRB) solution (0.1 mL) at 0.4% (w/v) in 1% acetic acid was added to each well, and plates were incubated for 10 minutes at room temperature. After staining, unbound dye was removed by washing five times with 1% acetic acid and the plates were air dried. Bound stain was subsequently solubilized with 10 mM trizma base, and the absorbance was read on an automated plate reader at a wavelength of 515 nm. […] Using the seven absorbance measurements [time zero, (Tz), control growth, (C), and test growth in the presence of drug at the five concentration levels (Ti)], the percentage growth was calculated at each of the drug concentrations levels. Percentage growth inhibition was calculated as:
(§9) Three dose response parameters were calculated for each experimental agent. […] The drug concentration resulting in total growth inhibition (TGI) was calculated from Ti=Tz. […]

[8] = system: SF295; experiment: as above; type: cell-based, human; settings: CNS SF295, high MDR-expressing, 48 h
Method: as §6, §7, §8, §9

[9] = system: panel of 12 human tumour cell lines; experiment: Monolayer proliferation assay Protocol 1, mean across the cell lines tested; type: cell-based
Method: as §1, §2, §3, §4, §5

| Structure (SMILES) | half-life at 0.001 mM ([1]; human, liver microsomes, pH 7.4, 0.001 mM, 0.25 mg/mL protein, NADPH, 37° C., read-out: HLM stability: T½ min) [min] | Test/Control (%) at drug concentration ([2]; MDA231, 1 μM) [%] | Test/Control (%) at drug concentration ([2]; MDA231, 10 μM) [%] | Test/Control (%) at drug concentration ([3]; H460, 1 μM) [%] | Test/Control (%) at drug concentration ([4]; DU145, 1 μM) [%] | Test/Control (%) at drug concentration ([4]; DU145, 10 μM) [%] | Test/Control (%) at drug concentration ([5]; 1 μM) [%] | Test/Control (%) at drug concentration ([5]; 10 μM) [%] | Test/Control (%) at drug concentration ([6]; SF268, 1 μM) [%] | Test/Control (%) at drug concentration ([6]; SF268, 10 μM) [%] | GI50 ([7]; Homo sapiens) [µM] | GI50 ([8]; Homo sapiens, SF-295) [µM] | Mean IC70 [9] [µM] | pIC50 ([9]; Homo sapiens) | metabolic stability compared to rapamycin [1] | HLM stability: T½ min ([1]; 0.001 mM, 0.25 mg/mL protein, NADPH, 37° C.) [min] | Test/Control (%) at drug concentration ([3]; H460, 10 μM) [%] | Log GI50 [7] | Log GI50 [8] | pIC50 [9] |
| --- | --- | --- | --- | --- | --- | --- | --- | --- | --- | --- | --- | --- | --- | --- | --- | --- | --- | --- | --- | --- |
| CO[C@H]1C[C@@H]2CC[C@@H](C)[C@@](O)(O2)C(=O)C(=O)N2CCCC[C@H]2C(=O)O[C@H]([C@H](C)C[C@@H]2CC[C@@H](O)[C@H](OC)C2)CC(=O)[C@H](C)/C=C(\C)[C@@H](O)[C@@H](OC)C(=O)[C@H](C)C[C@H](C)/C=C/C=C/C=C/1C [Rapamycin] | 40 | 67 | 63.5 | 67 | 50.5 | 54 | 42 | 21.5 | 53.5 | 46 | 0.251 | 0.1 | 9.1 | 5.46 |  |  |  |  |  |  |
| COC1CC2CCC(C)C(O)(O2)C(=O)C(=O)N2CCCCC2C(=O)OC(C(C)CC2CCC(O)CC2)CC(=O)C(C)C=C(C)C(O)C(OC)C(=O)C(C)CC(C)C=CC=CC=C1C (stereo not drawn) [39-desmethoxyrapamycin] |  | 68 | 37.5 | 71 | 65.5 | 44.5 | 52 | 9.5 | 57.5 | 23 |  |  | 6.95 |  | increased metabolic stability | 59 | 55.5 | −7.07 | −5.85 | 5.49 |
